Data as given in ChEMBL document CHEMBL5029165, “Derivatives of montanine-type alkaloids and their implication for the treatment of Alzheimer's disease: Synthesis, biological activity and in silico study” (Bioorg Med Chem Lett, 2021).

Assays:
Acetylcholinesterase [1] = target: T1, Acetylcholinesterase (Homo sapiens, UniProt P22303); experiment: Inhibition of human AChE at 100 uM using acetylthiocholine as substrate by Ellman's method
Acetylcholinesterase [2] = target: T1, Acetylcholinesterase; experiment: Inhibition of human AChE using acetylthiocholine as substrate by Ellman's method
Cholinesterase [3] = target: T2, Cholinesterase (Homo sapiens, UniProt P06276); experiment: Inhibition of human BuChE at 100 uM using butyrylthiocholine chloride as substrate by Ellman's method
Cholinesterase [4] = target: T2, Cholinesterase; experiment: Inhibition of human BuChE using butyrylthiocholine chloride as substrate by Ellman's method
[5] = Selectivity index, ratio of IC50 for human BuChe to IC50 for human AChE
[6] = Selectivity index, ratio of IC50 for human AChE to IC50 for human BuChe

T1 sequence (P22303 whole entry): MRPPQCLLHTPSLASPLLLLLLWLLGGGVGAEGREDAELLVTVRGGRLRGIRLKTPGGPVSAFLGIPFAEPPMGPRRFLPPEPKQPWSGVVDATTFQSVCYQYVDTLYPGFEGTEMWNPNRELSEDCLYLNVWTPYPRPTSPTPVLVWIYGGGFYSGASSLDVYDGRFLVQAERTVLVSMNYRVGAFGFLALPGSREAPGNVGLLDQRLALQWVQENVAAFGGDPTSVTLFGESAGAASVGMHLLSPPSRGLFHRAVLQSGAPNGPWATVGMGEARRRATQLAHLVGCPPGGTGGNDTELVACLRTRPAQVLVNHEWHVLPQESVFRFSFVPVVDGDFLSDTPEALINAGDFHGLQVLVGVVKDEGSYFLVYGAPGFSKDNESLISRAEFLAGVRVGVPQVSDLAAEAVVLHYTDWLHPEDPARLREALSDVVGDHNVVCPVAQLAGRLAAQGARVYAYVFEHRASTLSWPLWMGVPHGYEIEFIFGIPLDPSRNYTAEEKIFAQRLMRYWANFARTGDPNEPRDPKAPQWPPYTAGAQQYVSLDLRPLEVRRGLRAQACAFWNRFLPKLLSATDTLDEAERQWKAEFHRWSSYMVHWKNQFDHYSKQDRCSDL
T2 sequence (P06276 whole entry): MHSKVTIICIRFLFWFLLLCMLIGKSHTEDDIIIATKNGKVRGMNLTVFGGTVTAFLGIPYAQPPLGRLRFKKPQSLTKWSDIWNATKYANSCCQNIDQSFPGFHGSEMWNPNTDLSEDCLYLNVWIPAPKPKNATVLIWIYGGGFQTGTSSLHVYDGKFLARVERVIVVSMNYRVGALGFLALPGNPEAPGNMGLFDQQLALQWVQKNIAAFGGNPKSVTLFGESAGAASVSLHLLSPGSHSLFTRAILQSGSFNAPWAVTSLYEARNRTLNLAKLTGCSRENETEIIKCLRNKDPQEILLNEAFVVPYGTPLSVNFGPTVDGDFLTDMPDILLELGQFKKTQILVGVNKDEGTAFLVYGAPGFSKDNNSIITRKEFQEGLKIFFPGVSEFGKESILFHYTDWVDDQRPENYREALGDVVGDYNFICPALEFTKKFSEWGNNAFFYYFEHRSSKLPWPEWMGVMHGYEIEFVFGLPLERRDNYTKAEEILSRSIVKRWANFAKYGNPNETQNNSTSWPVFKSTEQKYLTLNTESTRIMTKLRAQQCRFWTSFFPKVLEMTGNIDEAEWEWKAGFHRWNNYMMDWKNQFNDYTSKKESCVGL

SMILES	inhibition (Acetylcholinesterase [1]) [%]	IC50 (Acetylcholinesterase [2]) [µM]	inhibition (Cholinesterase [3]) [%]	IC50 (Cholinesterase [4]) [µM]	Selectivity Index [5]	Selectivity Index [6]
CO[C@H]1C[C@H]2C(=C[C@@H]1OC(=O)c1ccccc1)[C@H]1CN2Cc2cc3c(cc21)OCO3	8.5	> 100	20.1	> 100	–	–
CO[C@H]1C[C@H]2C(=C[C@@H]1OC(=O)c1cc([N+](=O)[O-])ccc1Cl)[C@H]1CN2Cc2cc3c(cc21)OCO3	78.7	3.18	30	> 100	> 31.4	< 0.03
COc1cccc(C(=O)O[C@H]2C=C3[C@H]4CN(Cc5cc6c(cc54)OCO6)[C@H]3C[C@@H]2OC)c1	19.3	> 100	20.3	> 100	–	–
CO[C@H]1C[C@H]2C(=C[C@@H]1OC(=O)c1cccc(C)c1)[C@H]1CN2Cc2cc3c(cc21)OCO3	18.2	> 100	12.9	> 100	–	–
CO[C@H]1C[C@H]2C(=C[C@@H]1OC(=O)c1ccc([N+](=O)[O-])cc1Cl)[C@H]1CN2Cc2cc3c(cc21)OCO3	48.6	> 100	27.1	> 100	–	–
CO[C@H]1C[C@H]2C(=C[C@@H]1OC(=O)N1CCCCC1)[C@H]1CN2Cc2cc3c(cc21)OCO3	8.8	> 100	97	1.73	–	–
CO[C@H]1C[C@H]2C(=C[C@@H]1OC(=O)c1ccc([N+](=O)[O-])cc1)[C@H]1CN2Cc2cc3c(cc21)OCO3	48.1	> 100	26.2	> 100	–	–
COc1c2c(cc3c1OCO3)[C@]13C=C[C@H](OC)C[C@H]1N(C2)C[C@H]3OC(=O)c1cccc2ccccc12	–	> 100	–	0.1	–	–
O=C(O[C@H]1CN2Cc3cc4c(cc3[C@]13C=C[C@@H](O)C[C@H]23)OCO4)c1ccccc1Cl	–	13	–	5.6	–	–
CO[C@H]1C[C@H]2C(=C[C@@H]1OC(=O)c1ccc(C)cc1)[C@H]1CN2Cc2cc3c(cc21)OCO3	12.4	> 100	12.9	> 100	–	–
CO[C@H]1C=C2[C@H]3CN(Cc4cc5c(cc43)OCO5)[C@H]2C[C@@H]1O	13.7	–	8.4	–	–	–
CO[C@H]1C[C@H]2C(=C[C@@H]1O)[C@H]1CN2Cc2cc3c(cc21)OCO3	9.2	> 100	9.2	> 100	–	–
CO[C@H]1C[C@H]2C(=C[C@@H]1OC(=O)C1CCCCC1)[C@H]1CN2Cc2cc3c(cc21)OCO3	1.2	> 100	20.8	> 100	< 0.02	> 57.8
CO[C@H]1C[C@H]2C(=C[C@@H]1OC(=O)c1ccoc1)[C@H]1CN2Cc2cc3c(cc21)OCO3	6.8	> 100	30.2	> 100	–	–
O=C(O[C@@H]1C=C[C@]23CCN(Cc4cc5c(cc42)OCO5)[C@H]3C1)c1ccccc1[N+](=O)[O-]	–	60	–	1.4	–	–
CO[C@H]1C=C2[C@H]3CN(Cc4cc5c(cc43)OCO5)[C@H]2C[C@@H]1OC(=O)c1ccc([N+](=O)[O-])cc1Cl	2.3	> 100	69.8	17	< 0.17	> 5.9
CO[C@H]1C=C2[C@H]3CN(Cc4cc5c(cc43)OCO5)[C@H]2C[C@@H]1OC(=O)N1CCCCC1	10.9	> 100	88.2	6.54	< 0.07	> 15.3
CO[C@H]1C=C2[C@H]3CN(Cc4cc5c(cc43)OCO5)[C@H]2C[C@@H]1OC(=O)c1cc([N+](=O)[O-])ccc1Cl	1.8	> 100	40.1	> 100	–	–
CO[C@H]1C[C@H]2C(=C[C@@H]1OC(=O)c1cc([N+](=O)[O-])cc([N+](=O)[O-])c1)[C@H]1CN2Cc2cc3c(cc21)OCO3	70.8	13.1	19.2	> 100	> 7.66	< 0.13

SMILES	inhibition (Acetylcholinesterase [1]) [%]	IC50 (Acetylcholinesterase [2]) [µM]	inhibition (Cholinesterase [3]) [%]	IC50 (Cholinesterase [4]) [µM]	Selectivity Index [5]	Selectivity Index [6]
CO[C@H]1C[C@H]2C(=C[C@@H]1OC(=O)c1ccccc1C)[C@H]1CN2Cc2cc3c(cc21)OCO3	29.7	> 100	30.2	> 100	–	–
CO[C@H]1C[C@H]2C(=C[C@@H]1OC(=O)c1ccc(Cl)c([N+](=O)[O-])c1)[C@H]1CN2Cc2cc3c(cc21)OCO3	83.7	1.61	26.5	> 100	> 62.1	< 0.02
CO[C@H]1C[C@H]2C(=C[C@@H]1OC(=O)c1ccco1)[C@H]1CN2Cc2cc3c(cc21)OCO3	15.1	> 100	26.9	> 100	–	–
CO[C@H]1C[C@H]2C(=C[C@@H]1OC(=O)c1cccc([N+](=O)[O-])c1)[C@H]1CN2Cc2cc3c(cc21)OCO3	55.3	> 100	18.1	> 100	–	–
CO[C@H]1C[C@H]2C(=C[C@@H]1OC(=O)c1cccs1)[C@H]1CN2Cc2cc3c(cc21)OCO3	29.4	> 100	49.7	> 100	–	–
CO[C@H]1C[C@H]2C(=C[C@@H]1OC(=O)c1ccc(C)c([N+](=O)[O-])c1)[C@H]1CN2Cc2cc3c(cc21)OCO3	81.5	4.32	6.8	> 100	> 23.1	< 0.04
CO[C@H]1C=C2[C@H]3CN(Cc4cc5c(cc43)OCO5)[C@H]2C[C@@H]1OC(=O)c1ccc(Cl)c([N+](=O)[O-])c1	4.8	> 100	13.8	> 100	–	–
O=C(O[C@H]1CN2Cc3cc4c(cc3[C@]13C=C[C@@H](O)C[C@H]23)OCO4)c1cccc([N+](=O)[O-])c1	–	4	–	> 100	–	–
CO[C@H]1C=C2[C@H]3CN(Cc4cc5c(cc43)OCO5)[C@H]2C[C@@H]1OC(=O)c1ccc(C)c([N+](=O)[O-])c1	30.3	> 100	20.4	> 100	–	–
Cc1ccccc1C(=O)O[C@@H]1C=C[C@]23CCN(Cc4cc5c(cc42)OCO5)[C@H]3C1	–	> 100	–	8	–	–
COc1ccc(C(=O)O[C@H]2C=C3[C@H]4CN(Cc5cc6c(cc54)OCO6)[C@H]3C[C@@H]2OC)cc1OC	17.2	> 100	18.1	> 100	–	–
CO[C@H]1C[C@H]2C(=C[C@@H]1OC(=O)c1cc(Br)cc([N+](=O)[O-])c1)[C@H]1CN2Cc2cc3c(cc21)OCO3	28	> 100	31.7	> 100	–	–
COc1ccccc1C(=O)O[C@H]1CN2Cc3cc4c(cc3[C@]13C=C[C@@H](O)C[C@H]23)OCO4	–	90	–	3.3	–	–
COc1ccc(C(=O)O[C@H]2C=C3[C@H]4CN(Cc5cc6c(cc54)OCO6)[C@H]3C[C@@H]2OC)cc1	12.5	> 100	15.5	> 100	–	–
COc1ccccc1C(=O)O[C@H]1C=C2[C@H]3CN(Cc4cc5c(cc43)OCO5)[C@H]2C[C@@H]1OC	15.6	> 100	30.1	> 100	–	–
CO[C@H]1C[C@H]2C(=C[C@@H]1OC(=O)c1ccccc1[N+](=O)[O-])[C@H]1CN2Cc2cc3c(cc21)OCO3	34.1	> 100	45.4	> 100	–	–
CO[C@H]1C[C@H]2C(=C[C@@H]1OCCN1CCCCC1)[C@H]1CN2Cc2cc3c(cc21)OCO3	6.5	> 100	45.2	> 100	–	–
CO[C@H]1C=C2[C@H]3C[N@@](Cc4cc5c(cc43)OCO5)[C@H]2C[C@@H]1O [MONTANINE]	–	> 100	–	> 100	–	–
